Test results taken from patent US20230232831A1, “MONOTERPENOID AND PHENYLPROPANOID CARBONATE ESTERS AND METHODS OF THEIR MAKING AND USE AS REPELLENTS” (IOWA STATE UNIVERSITY RESEARCH FOUNDATION, INC., priority 2020, published 2023).
“Also recorded” adds a separate entry of the source.

Assays:
Format in all cases: in vivo
Culex pipiens [1] = assay: Short-term spatial repellency, static air chamber; conditions: for short-term repellency (result in words): 1 mL of 0.5% solution on filter paper, 15-150 min
Method: FIG. 4 is a graph showing the repellency observed when 1 mL of a 0.5% solution of each compound was applied to a filter paper, dried for 15 minutes, and placed at the treated end of the repellency chamber. FIG. 6 is a graph showing repellency of various compounds against the mosquito species Culex pipiens observed when 1 mL of a 0.5% solution of each compound was applied to a filter paper, dried for 15 minutes, and placed at the treated end of the repellency chamber. The static air chamber used for the repellency assay has been described previously (Klimavicz et al., “Monoterpenoid Isovalerate Esters as Long-lasting Spatial Mosquito Repellents,” In Advances in the Biorational Control of Medicaland Veterinary Pests, American Chemical Society: 2018; Vol. 1289, pp 205-217; Peterson et al., “Identification of Components of Osage Orange Fruit (Maclura pomifera) and Their Repellency to German Cockroaches,” J. Essent. Oil Res. 14:233-236 (2002), which are hereby incorporated by reference in their entirety). For each assay run, a 90-mm Whatman No. 1 filter paper was treated with 1 mL acetone solution containing 0.5% w/v of a carbonate ester. The filter paper was supported upon several pins during the addition of the acetone solution to diminish wicking of the solution away from the filter paper, and the solution was added over approximately thirty seconds to allow acetone to evaporate during the addition to prevent dripping. After the addition of the solution was complete, remaining acetone was permitted to evaporate for […] before testing. A 600-mm-long clear glass cylinder with an inner diameter of 85 mm and a single hole (20 mm diameter) halfway along the side of the cylinder was used for the repellency chamber. One end of the chamber was capped with a glass petri dish (inner diameter 90 mm) containing an untreated 90-mm Whatman No. 1 filter paper, while the other end was likewise covered with a similar petri dish containing the treated filter paper. Immediately after capping both ends of the chamber, 20 non-blood-fed female Culex pipiens mosquitoes were anesthetized with carbon dioxide, and placed into the repellency chamber through the hole in the side of the cylinder via a funnel. The hole was sealed, and the number of mosquitoes on the treated and untreated halves were recorded at 15, 30, 60, 90, 120, and 150 minutes after introduction of the mosquitoes to the chamber. All statistical analysis was performed in R. To determine repellency of a given compound, the number of repelled mosquitoes and the total number of mosquitos the chamber for each trial at a given time point were fit to a beta-binomial distribution to account for overdispersion in the estimated repellency. Because percentage repellency is bound between -100% (completely attracting) and 100% (completely repelling), percentage repellency shown with error bars representing 50% confidence intervals determined from a non-chance-corrected beta-binomial fit to the data, using an inverse link function equal to the psychometric function for the duo-trio test. Statistical significance was determined by nonoverlap of these confidence intervals. Estimates of the proportion of mosquitoes repelled in the chamber was then transformed to percentage repellency, which is expressed as […]

Culex pipiens [2] = assay: Long-term repellency, treated filter paper placed in chamber 5 hours after application; conditions: filter paper placed 5 hours after compound was applied
Method: FIG. 5 is a graph showing the repellency observed when 1 mL of each compound was applied to a filter paper placed at the treated end of the repellency chamber 5 hours after compound was applied. FIG. 8 is a graph showing the repellency of various compounds observed when 1 mL of each compound was applied to a filter paper placed at the treated end of the repellency chamber 5 hours after compound was applied. An array of older and newly synthesized carbonates was chosen and tested for repellency activity. Six compounds were screened according to long-term repellency assays and three compounds were screened according to short-term repellency assays. These assays were all conducted using Culex pipiens mosquitoes. The compounds tested are illustrated in Table 1. An array of carbonates was chosen and tested for repellency activity. Some compounds were screened according to long-term repellency assays and some compounds were screened according to short-term repellency assays. These assays were conducted using Culex pipiens mosquitoes or Aedes aegypti mosquitoes.

Culex pipiens [3] = assay: Short-term spatial repellency, static air chamber; conditions: short-term assay, 1 mL of 0.5% solution, dried 15 minutes

| SMILES | short-term repellency (result in words) (Culex pipiens [1]) | also measured |
| --- | --- | --- |
| CCOC(=O)Oc1cc(C)ccc1C(C)C [Compound 2a, Ethyl thymyl carbonate] | final estimated repellency was approximately the same | short-term repellency (result in words) (Culex pipiens [1]; listed as Ethyl thymyl carbonate): excellent short-term repellent |
| CCOC(=O)OCCC(C)CCC=C(C)C (stereo not shown) [Compound 1a, Citronellyl ethyl carbonate] | numerically superior out of all the citronellyl carbonates | mosquitoes repelled in short-term repellency assay (Culex pipiens [1]; 1 mL of 0.5% w/v acetone solution on filter paper, assay extending out to 2.5 hours): approximately 90% |
| Cc1ccc(C(C)C)c(OC(=O)OCC(C)C)c1 [Compound 2d, Isobutyl thymyl carbonate] | slower onset of high repellency; also recorded: final estimated repellency was approximately the same | – |
| CC(C)=CCCC(C)CCOC(=O)OCC(C)C (stereo not shown) [Compound 1d, Citronellyl isobutyl carbonate] | numerically, but not statistically, less repellent than 1a | – |
| C=C(C)C1CCC(C)CC1OC(=O)OCC (stereo not shown) [Compound 3a, Ethyl isopulegyl carbonate] | – | long-term repellency (result in words) (Culex pipiens [2]): not able to repel mosquitoes very well at all |
| COC(=O)Oc1cc(C)ccc1C(C)C [Compound 4249, Thymyl methyl carbonate] | – | mortality seen in the repellency chamber (Culex pipiens [3]): significant mortality |
| COC(=O)OCCC(C)CCC=C(C)C (stereo not shown) [Compound 1b, Citronellyl methyl carbonate] | numerically, but not statistically, less repellent than 1a | – |
| CC(C)=CCCC(C)CCOC(=O)Oc1ccccc1 (stereo not shown) [Compound 1f, Citronellyl phenyl carbonate] | weakest repellent effect | – |
| CC(C)=CCCC(C)CCOC(=O)OC(C)C (stereo not shown) [Compound 1c, Citronellyl isopropyl carbonate] | numerically, but not statistically, less repellent than 1a | – |
| CCOC(=O)OC1C=C(C)C2CC1C2(C)C (stereo not shown) [Compound 4251, Verbenyl ethyl carbonate] | – | mortality seen in the repellency chamber (Culex pipiens [3]): Very minimal amounts of mortality |
| CCOC(=O)OC1CC2CCC1(C)C2(C)C (stereo not shown) [Compound 7a, Bornyl ethyl carbonate] | only modest repellency | – |
